Eleven molecules from PubChem BioAssay AID252 (DTP/NCI, 2004) can be followed below.

SMILES strings stand for the structures. Values joined by “and” are separate entries in the source; they are usually repeats but may differ in a detail not shown here. Equal entries are not always repeated. Toxic doses and inconclusive results are not listed.

The assay deals with BDF1 mice, intracerebral L1210 leukemia, survival T/C. Nature of the assay: NCI In Vivo Anticancer Drug Screen. Data for tumor model L1210 Leukemia (intracerebral) in B6D2F1 (BDF1) mice. As to conditions: higher = longer survival. As for the experimental part:
The antitumor activity of compounds was measured in mice bearing transplantable tumors. Survival or tumor size were measured and the results are expressed as the measurement made in the treated group (T) divided by the measurement made in the vehicle treated control group (C). The tumor model used in this assay is L1210 Leukemia (intracerebral) in B6D2F1 (BDF1) mice

[1] abbreviates: endpoint: mean survival time, dose: 54.0 mg/kg/injection, schedule: Q01DX001 (ip), vehicle: other.

For `CS(=O)(=O)Nc1ccc(Nc2c3ccccc3nc3cc([N+](=O)[O-])ccc23)cc1`, the T/C was 91 % of control (endpoint: mean survival time, dose: 1.25 mg/kg/injection, schedule: Q01DX009 (ip), vehicle: Klucel (hydroxypropylcellulose) (HPC)); 106 % of control (endpoint: mean survival time, dose: 1.25 mg/kg/injection, schedule: Q01DX009 (sc), vehicle: Klucel (hydroxypropylcellulose) (HPC)); 87 % of control (endpoint: mean survival time, dose: 2.5 mg/kg/injection, schedule: Q01DX009 (ip), vehicle: Klucel (hydroxypropylcellulose) (HPC)); 97 % of control (endpoint: mean survival time, dose: 2.5 mg/kg/injection, schedule: Q01DX009 (sc), vehicle: Klucel (hydroxypropylcellulose) (HPC)); 98 % of control (endpoint: mean survival time, dose: 3.12 mg/kg/injection, schedule: Q01DX001 (ip), vehicle: saline); 89 % of control (endpoint: mean survival time, dose: 5.0 mg/kg/injection, schedule: Q01DX009 (ip), vehicle: Klucel (hydroxypropylcellulose) (HPC)). Besides, the T/C by setting is: (endpoint: mean survival time, dose: 5.0 mg/kg/injection, schedule: Q01DX009 (sc), vehicle: Klucel (hydroxypropylcellulose) (HPC)) 103 % of control; (endpoint: mean survival time, dose: 6.25 mg/kg/injection, schedule: Q01DX001 (ip), vehicle: saline) 98 % of control; (endpoint: mean survival time, dose: 10.0 mg/kg/injection, schedule: Q01DX009 (sc), vehicle: Klucel (hydroxypropylcellulose) (HPC)) 102 % of control; (endpoint: mean survival time, dose: 12.5 mg/kg/injection, schedule: Q01DX001 (ip), vehicle: saline) 101 % of control; (endpoint: mean survival time, dose: 25.0 mg/kg/injection, schedule: Q01DX001 (ip), vehicle: saline) 101 % of control; (endpoint: mean survival time, dose: 50.0 mg/kg/injection, schedule: Q01DX001 (ip), vehicle: saline) 90 % of control.
As to `N=[N+]=CC(=O)OCC(N)C(=O)O` (stereo unspecified), the T/C is 104 % of control (endpoint: mean survival time, dose: 43.0 mg/kg/injection, schedule: Q01DX001 (ip), vehicle: saline) and 101 % of control (endpoint: mean survival time, dose: 66.0 mg/kg/injection, schedule: Q01DX001 (ip), vehicle: saline).
`O=c1cnn(C2OC(CO)C(O)C2O)c(=O)[nH]1` (stereo unspecified): the T/C (endpoint: mean survival time, dose: 750.0 mg/kg/injection, schedule: Q01DX Z (ip), vehicle: saline) was 158 % of control.
For the molecule `CNC1=C(N2CC2)C(=O)C(NC)=C(N2CC2)C1=O`, the T/C was 106 % of control (endpoint: mean survival time, dose: 0.05 mg/kg/injection, schedule: Q01DX009 (ip), vehicle: saline); 111 % of control (endpoint: mean survival time, dose: 0.1 mg/kg/injection, schedule: Q01DX009 (ip), vehicle: saline); 160 % of control (endpoint: mean survival time, dose: 0.2 mg/kg/injection, schedule: Q01DX009 (ip), vehicle: saline); 119 % of control (endpoint: mean survival time, dose: 0.3 mg/kg/injection, schedule: Q01DX009 (ip), vehicle: saline); 103 % of control (endpoint: mean survival time, dose: 0.4 mg/kg/injection, schedule: Q01DX009 (ip), vehicle: saline); 160 % of control (endpoint: mean survival time, dose: 0.6 mg/kg/injection, schedule: Q01DX009 (ip), vehicle: saline).
Turning to `CC(=O)OC1CCC(NC(=O)N(CCCl)N=O)CC1` (stereo unspecified), the T/C is 364 % of control (endpoint: mean survival time, dose: 24.0 mg/kg/injection, schedule: Q01DX001 (ip), vehicle: other); 500 % of control (endpoint: mean survival time, dose: 36.0 mg/kg/injection, schedule: Q01DX001 (ip), vehicle: other); 423 % of control under setting [1].
Regarding `O=NN(CCCl)C(=O)N[C@H]1CCCC[C@H]1O`, the T/C (endpoint: mean survival time, dose: 18.0 mg/kg/injection, schedule: Q01DX001 (ip), vehicle: saline with Tween-80) was 220 % of control; the T/C (endpoint: mean survival time, dose: 26.0 mg/kg/injection, schedule: Q01DX001 (ip), vehicle: saline with Tween-80) is 408 % of control; the T/C (endpoint: mean survival time, dose: 40.0 mg/kg/injection, schedule: Q01DX001 (ip), vehicle: saline with Tween-80) was 352 % of control; the T/C (endpoint: mean survival time, dose: 60.0 mg/kg/injection, schedule: Q01DX001 (ip), vehicle: saline with Tween-80) is 193 % of control.
For the molecule `CN(N=O)C(=O)Nc1ccccc1`, the T/C was 103 % of control (endpoint: mean survival time, dose: 150.0 mg/kg/injection, schedule: Q01DX001 (ip), vehicle: carboxymethylcellulose (CMC)) and 98 % of control (endpoint: mean survival time, dose: 300.0 mg/kg/injection, schedule: Q01DX001 (ip), vehicle: carboxymethylcellulose (CMC)).
Consider `c1cc2n(n1)CCN2`, for which the T/C reads like this: (endpoint: median survival time, dose: 50.0 mg/kg/injection, schedule: Q01DX009 (ip), vehicle: water) 94 % of control; (endpoint: median survival time, dose: 100.0 mg/kg/injection, schedule: Q01DX009 (ip), vehicle: water) 106 % of control; (endpoint: median survival time, dose: 100.0 mg/kg/injection, schedule: Q04DX003 (ip), vehicle: water) 102 % of control; (endpoint: median survival time, dose: 200.0 mg/kg/injection, schedule: Q01DX009 (ip), vehicle: water) 107 % of control; (endpoint: median survival time, dose: 200.0 mg/kg/injection, schedule: Q04DX003 (ip), vehicle: water) 114 % of control; (endpoint: median survival time, dose: 300.0 mg/kg/injection, schedule: Q04DX003 (ip), vehicle: water) 116 % of control.
As to `O=NN(CCF)C(=O)NC1CCCCC1`, the T/C reads like this: (endpoint: mean survival time, dose: 13.0 mg/kg/injection, schedule: Q01DX001 (ip), vehicle: carboxymethylcellulose (CMC)) 120 % of control; (endpoint: mean survival time, dose: 13.5 mg/kg/injection, schedule: Q01DX001 (ip), vehicle: other) 166 % of control and 214 % of control and 233 % of control; (endpoint: mean survival time, dose: 13.5 mg/kg/injection, schedule: Q01DX001 (oral), vehicle: other) 253 % of control and 270 % of control and 284 % of control; (endpoint: mean survival time, dose: 20.0 mg/kg/injection, schedule: Q01DX001 (ip), vehicle: carboxymethylcellulose (CMC)) 180 % of control; (endpoint: mean survival time, dose: 27.0 mg/kg/injection, schedule: Q01DX001 (ip), vehicle: other) 156 % of control and 373 % of control and 379 % of control; (endpoint: mean survival time, dose: 27.0 mg/kg/injection, schedule: Q01DX001 (oral), vehicle: other) 325 % of control and 352 % of control and 462 % of control. Besides, the T/C by setting is: (endpoint: mean survival time, dose: 30.0 mg/kg/injection, schedule: Q01DX001 (ip), vehicle: carboxymethylcellulose (CMC)) 290 % of control and 322 % of control; (endpoint: mean survival time, dose: 45.0 mg/kg/injection, schedule: Q01DX001 (ip), vehicle: carboxymethylcellulose (CMC)) 293 % of control and 337 % of control; under setting [1], 190 % of control and 322 % of control and 367 % of control; (endpoint: mean survival time, dose: 54.0 mg/kg/injection, schedule: Q01DX001 (oral), vehicle: other) 203 % of control and 379 % of control; (endpoint: mean survival time, dose: 67.0 mg/kg/injection, schedule: Q01DX001 (ip), vehicle: carboxymethylcellulose (CMC)) 275 % of control.
For `O=C(Nc1ccc(C2=NCCN2)cc1)c1ccc(C(=O)Nc2ccc(C3=NCCN3)cc2)c(Cl)c1`, the T/C reads like this: (endpoint: mean survival time, dose: 12.0 mg/kg/injection, schedule: Q01DX015 (ip), vehicle: carboxymethylcellulose (CMC)) 112 % of control; (endpoint: mean survival time, dose: 12.5 mg/kg/injection, schedule: Q01DX Z (ip), vehicle: carboxymethylcellulose (CMC)) 114 % of control; (endpoint: mean survival time, dose: 18.0 mg/kg/injection, schedule: Q01DX015 (ip), vehicle: carboxymethylcellulose (CMC)) 120 % of control; (endpoint: mean survival time, dose: 25.0 mg/kg/injection, schedule: Q01DX Z (ip), vehicle: carboxymethylcellulose (CMC)) 108 % of control; (endpoint: mean survival time, dose: 27.0 mg/kg/injection, schedule: Q01DX015 (ip), vehicle: carboxymethylcellulose (CMC)) 118 % of control; (endpoint: mean survival time, dose: 37.5 mg/kg/injection, schedule: Q01DX Z (ip), vehicle: carboxymethylcellulose (CMC)) 102 % of control. Further, the T/C runs as follows: (endpoint: mean survival time, dose: 48.0 mg/kg/injection, schedule: Q01DX001 (ip), vehicle: carboxymethylcellulose (CMC)) 98 % of control; (endpoint: mean survival time, dose: 48.4 mg/kg/injection, schedule: Q01DX001 (ip), vehicle: carboxymethylcellulose (CMC)) 102 % of control; (endpoint: mean survival time, dose: 50.0 mg/kg/injection, schedule: Q01DX Z (ip), vehicle: carboxymethylcellulose (CMC)) 96 % of control; (endpoint: mean survival time, dose: 74.0 mg/kg/injection, schedule: Q01DX001 (ip), vehicle: carboxymethylcellulose (CMC)) 107 % of control and 100 % of control.
Take `CCCOC1=C(N2CC2)C(=O)C(OCCC)=C(N2CC2)C1=O`: the T/C was 105 % of control (endpoint: mean survival time, dose: 0.25 mg/kg/injection, schedule: Q01DX009 (ip), vehicle: saline); 97 % of control (endpoint: mean survival time, dose: 0.5 mg/kg/injection, schedule: Q01DX005 (ip), vehicle: saline); 113 % of control (endpoint: mean survival time, dose: 0.5 mg/kg/injection, schedule: Q01DX009 (ip), vehicle: saline); 101 % of control (endpoint: mean survival time, dose: 1.0 mg/kg/injection, schedule: Q01DX005 (ip), vehicle: saline); 104 % of control and 302 % of control (endpoint: mean survival time, dose: 1.0 mg/kg/injection, schedule: Q01DX009 (ip), vehicle: saline); 108 % of control (endpoint: mean survival time, dose: 2.0 mg/kg/injection, schedule: Q01DX005 (ip), vehicle: saline). The T/C (endpoint: mean survival time, dose: 2.0 mg/kg/injection, schedule: Q01DX009 (ip), vehicle: saline) was 111 % of control and 117 % of control; the T/C (endpoint: mean survival time, dose: 4.0 mg/kg/injection, schedule: Q01DX005 (ip), vehicle: saline) is 106 % of control; the T/C (endpoint: mean survival time, dose: 4.0 mg/kg/injection, schedule: Q01DX009 (ip), vehicle: saline) was 117 % of control.
